Measurements from PubChem BioAssay (NCI).
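Briefly, cells in 96-well plates were exposed to five compound concentrations for 48 h, and endpoints were estimated by linear interpolation. At the GI50, growth is halved. The concentration for full growth arrest is given as TGI.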

Legend:
Experiment in all cases: growth of human tumour cells (NCI), 48 h
SK-MEL-28 melanoma = tested on: SK-MEL-28 melanoma
HCT-116 colon = tested on: HCT-116 colon
SR leukemia = tested on: SR leukemia
COLO 205 colon = tested on: COLO 205 colon
KM12 colon = tested on: KM12 colon
TK-10 renal = tested on: TK-10 renal
SK-OV-3 ovarian = tested on: SK-OV-3 ovarian
HL-60(TB) leukemia = tested on: HL-60(TB) leukemia
HT29 colon = tested on: HT29 colon
BT-549 breast = tested on: BT-549 breast

SMILES	GI50 (SK-MEL-28 melanoma)	TGI (SK-MEL-28 melanoma)	GI50 (HCT-116 colon)	TGI (HCT-116 colon)	GI50 (SR leukemia)	TGI (SR leukemia)	GI50 (COLO 205 colon)	TGI (COLO 205 colon)	GI50 (KM12 colon)	TGI (KM12 colon)	GI50 (TK-10 renal)	TGI (TK-10 renal)	GI50 (SK-OV-3 ovarian)	TGI (SK-OV-3 ovarian)	GI50 (HL-60(TB) leukemia)	TGI (HL-60(TB) leukemia)	GI50 (HT29 colon)	TGI (HT29 colon)	GI50 (BT-549 breast)	TGI (BT-549 breast)
O=C(Nc1ccc(/C=C/c2ccc(NC(=O)c3cc(S(=O)(=O)O)c4cccnc4c3O)cc2S(=O)(=O)O)c(S(=O)(=O)O)c1)c1cc(S(=O)(=O)O)c2cccnc2c1O	25.5 µM	> 62.7 µM	4.54 µM	> 43.3 µM	0.0205 µM	0.17 µM	19.9 µM	> 57.5 µM	42.8 µM	> 67.7 µM	48.4 µM	> 71.4 µM	> 38.9 µM	> 100 µM	0.337 µM	3.2 µM	32.1 µM	> 100 µM	21.8 µM	> 79.8 µM
COc1cc2c(cc1Nc1nc(Nc3cccc(F)c3C(N)=O)c3cc[nH]c3n1)N(C(=O)CN1CCN(C(C)C)CC1)CC2	3.7 µM	7.02 µM	3.39 µM	6.63 µM	1.19 µM	15.2 µM	0.666 µM	3.65 µM	3.82 µM	7.31 µM	2.97 µM	7.55 µM	3.85 µM	7.26 µM	1.42 µM	5.6 µM	0.685 µM	4.06 µM	3.95 µM	7.54 µM
O=c1oc2ccc(Br)cc2c(=O)n1-c1ccc(I)cc1F	0.347 µM	1.75 µM	0.396 µM	1.53 µM	0.417 µM	21.9 µM	3.97 µM	15.1 µM	1.66 µM	4.37 µM	0.631 µM	7.39 µM	0.271 µM	2.13 µM	0.375 µM	1.99 µM	3.31 µM	12.5 µM	0.341 µM	1.39 µM
O=C(Nc1n[nH]c2nnc(-c3cccnc3)cc12)C1CC1	> 16.9 µM	> 25 µM	4.47 µM	> 19.5 µM	6.23 µM	> 25 µM	7.45 µM	> 25 µM	5.22 µM	> 20.1 µM	–	> 25 µM	0.621 µM	> 25 µM	> 13.6 µM	> 22.6 µM	4.76 µM	> 25 µM	10.8 µM	> 25 µM
Cn1c(/C=C/[N+](=O)[O-])cc2ccccc21	15.7 µM	34.5 µM	1.04 µM	2.45 µM	2.16 µM	8.06 µM	1.88 µM	3.69 µM	1.69 µM	3.15 µM	4.04 µM	14.9 µM	13.2 µM	26.3 µM	13.1 µM	57.5 µM	1.68 µM	4.02 µM	1.88 µM	3.77 µM
COc1ccc(Nc2cc(C)nc(NCCCNc3ccnc4cc(Cl)ccc34)n2)cc1	1.65 µM	3.16 µM	1.27 µM	3.82 µM	0.778 µM	3.62 µM	1.58 µM	3.22 µM	1.88 µM	3.58 µM	1.89 µM	3.41 µM	1.67 µM	3.2 µM	2.37 µM	5.66 µM	1.1 µM	2.67 µM	1.86 µM	4.67 µM
